Test results taken from PubChem BioAssay AID1996.
Values after ≈ are worked out from the molar mass of the structure shown.

conditions: buffer; pH 7.4; 200.0 µM

With `O=C(COc1cccc(C(F)(F)F)c1)NCC(c1ccco1)N1CCCC1` (stereo not given) as the compound, how does the solubility kinetic read?
The solubility kinetic was 45.1 µg/mL (≈ 118 µM).

With `COc1ccc2nc(S(=O)Cc3ncc(C)c(OC)c3C)[nH]c2c1` (stereo not given) as the compound, how does the solubility kinetic read?
Its solubility kinetic is 35.4 µg/mL (≈ 102 µM).

Which solubility kinetic does the source give for `Cc1[nH]c(=O)[nH]c(=O)c1S(=O)(=O)Nc1cccc(C(F)(F)F)c1` here?
The solubility kinetic was over 52.4 µg/mL.

Which solubility kinetic does the source give for `CC(=O)c1ccc(NC(=O)C2CCCC2)cc1` here?
Its solubility kinetic is 32.6 µg/mL (≈ 141 µM).

With `CCC(NS(=O)(=O)c1cccs1)c1ccc(C)cc1` (stereo not given) as the compound, how does the solubility kinetic read?
Its solubility kinetic is over 44.3 µg/mL.

Which solubility kinetic does the source give for `CCCc1cc(=O)[nH]c(SCC(=O)Nc2cc(S(=O)(=O)N3CCOCC3)ccc2Cl)n1` here?
Its solubility kinetic is 63.8 µg/mL (≈ 131 µM).

For `Cc1cc(C)cc(C(=O)OCC(=O)NCc2ccco2)c1`, which solubility kinetic is on record?
The solubility kinetic was over 43.1 µg/mL.

With `O=C(COC(=O)COc1ccc(Cl)cc1)NC1CCCCCC1` as the compound, how does the solubility kinetic read?
Its solubility kinetic is 8.1 µg/mL (≈ 23.8 µM).

With `COc1cccc(NC(=S)N(CCN(C)C)Cc2cccs2)c1` as the compound, how does the solubility kinetic read?
Its solubility kinetic is 41.6 µg/mL (≈ 119 µM).

For `COc1ccccc1CNC(=O)COc1ccc2c(c1)CCC2`, which solubility kinetic is on record?
The solubility kinetic was 20.5 µg/mL (≈ 65.8 µM).

Which solubility kinetic does the source give for `CC1CCCN(S(=O)(=O)c2cccc3nonc23)C1` (stereo not given) here?
Its solubility kinetic is 13.2 µg/mL (≈ 46.9 µM).

Which solubility kinetic does the source give for `O=C(COC(=O)/C=C/c1ccco1)NCc1ccc(Cl)cc1Cl` here?
The solubility kinetic was 7.6 µg/mL (≈ 21.5 µM).

With `O=c1nc(-c2ccccc2)c2cc(Br)ccc2[nH]1` as the compound, how does the solubility kinetic read?
The solubility kinetic was 1.8 µg/mL (≈ 5.98 µM).

For `CC(C)N(Cc1ccccc1)C(=O)COC(=O)c1c(F)cccc1F`, which solubility kinetic is on record?
The solubility kinetic was over 52.1 µg/mL.

Which solubility kinetic does the source give for `CCN(Cc1ccncc1)Cc1ccc(Br)cc1.O=C(O)C(=O)O` here?
The solubility kinetic was 30.6 µg/mL.

Which solubility kinetic does the source give for `O=C(NC(=S)N1CCCCC1)c1csc([N+](=O)[O-])c1` here?
The solubility kinetic was over 44.9 µg/mL.

Which solubility kinetic does the source give for `Cc1ccnc(N2CCCC(C(=O)NC3CC3)C2)n1` (stereo not given) here?
The solubility kinetic was 37.3 µg/mL (≈ 143 µM).

With `O=C(Nc1ccc2c(c1)OCO2)C1CC1` as the compound, how does the solubility kinetic read?
Its solubility kinetic is over 30.8 µg/mL.

Which solubility kinetic does the source give for `Cc1ccc(C(=O)Nc2ccc(C(=O)N3CCCCC3C)cc2)cc1` (stereo not given) here?
The solubility kinetic was 5.2 µg/mL (≈ 15.5 µM).

Which solubility kinetic does the source give for `O=C1CC(N2CCSCC2)C(=O)N1c1ccc(F)cc1` (stereo not given) here?
The solubility kinetic was over 44.2 µg/mL.

With `CC(NC(=O)c1ccco1)c1nc(-c2ccccc2Cl)no1` (stereo not given) as the compound, how does the solubility kinetic read?
The solubility kinetic was over 47.7 µg/mL.

With `Cc1c(C(=O)CN2CCCC(C)(C)C2)c2ccccc2n1C` as the compound, how does the solubility kinetic read?
The solubility kinetic was over 44.8 µg/mL.

With `Cn1cccc1C(=O)OCC(=O)NC1CCS(=O)(=O)C1` (stereo not given) as the compound, how does the solubility kinetic read?
Its solubility kinetic is over 45 µg/mL.

For `Cc1cnc(C(=O)OCc2c(C)cc(C(C)(C)C)cc2C)cn1`, which solubility kinetic is on record?
The solubility kinetic was 9 µg/mL (≈ 28.8 µM).

Which solubility kinetic does the source give for `Br.CC(=O)c1sc(Nc2ccc(C)cc2)nc1C` here?
Its solubility kinetic is over 49.1 µg/mL.

For `Cc1cc(C)nc(/N=C(\N)Nc2ccc(OCCC(C)C)cc2)n1`, which solubility kinetic is on record?
Its solubility kinetic is over 49.1 µg/mL.

Which solubility kinetic does the source give for `CCOC(=O)c1sc(S(C)(=O)=O)c2c1CC(C)(C)C/C2=N/O` here?
The solubility kinetic was over 51.8 µg/mL.

Which solubility kinetic does the source give for `O=C(OCC(=O)N1CCOCC1)c1ccc(O)cc1` here?
The solubility kinetic was 31 µg/mL (≈ 117 µM).

For `CN1CCN(NC(=S)NC(C)(C)CC(C)(C)C)CC1`, which solubility kinetic is on record?
Its solubility kinetic is over 43 µg/mL.

Which solubility kinetic does the source give for `CCCCC(CC)C(=O)N1CCN(C(=O)c2ccco2)CC1` (stereo not given) here?
The solubility kinetic was 45.4 µg/mL (≈ 148 µM).

With `O=C(COC(=O)/C=C/c1cccc(Br)c1)NCc1cccs1` as the compound, how does the solubility kinetic read?
The solubility kinetic was 5 µg/mL (≈ 13.1 µM).

For `Cl.Nc1cc(Cl)ccc1N1CCCC1`, which solubility kinetic is on record?
The solubility kinetic was 10.6 µg/mL.

Which solubility kinetic does the source give for `CN(C)/C=C(\c1cnc(Cl)s1)S(=O)(=O)c1ccccc1` here?
Its solubility kinetic is 43.8 µg/mL (≈ 133 µM).

For `CCOC(=O)/C(O)=C(\C#N)c1nc2ccccc2[nH]1`, which solubility kinetic is on record?
Its solubility kinetic is over 38.6 µg/mL.

Which solubility kinetic does the source give for `COc1ccc(NC(=O)c2ccc(-c3ccc([N+](=O)[O-])cc3)o2)cc1` here?
Its solubility kinetic is 1.2 µg/mL (≈ 3.55 µM).

For `COc1cc2ccccc2cc1C(=O)N1CCN(C(C)=O)CC1`, which solubility kinetic is on record?
Its solubility kinetic is 46.6 µg/mL (≈ 149 µM).

Which solubility kinetic does the source give for `COCCNC(=O)Nc1ccc(F)cc1` here?
Its solubility kinetic is over 31.8 µg/mL.

With `CC(Cc1ccccc1)NC(=O)c1cc2ccccc2o1` (stereo not given) as the compound, how does the solubility kinetic read?
Its solubility kinetic is 30.5 µg/mL (≈ 109 µM).

For `O=[N+]([O-])c1ccc(Oc2cccnc2)nc1`, which solubility kinetic is on record?
Its solubility kinetic is 25.5 µg/mL (≈ 117 µM).

With `COCCN1CCn2c(nc3cc([N+](=O)[O-])ccc32)C1` as the compound, how does the solubility kinetic read?
The solubility kinetic was over 41.4 µg/mL.

Which solubility kinetic does the source give for `COc1ccc(NC(=O)C2(c3cccs3)CCOCC2)cc1` here?
The solubility kinetic was 36.4 µg/mL (≈ 115 µM).

With `O=C(O)c1cccnc1Sc1ccc(Br)cc1` as the compound, how does the solubility kinetic read?
Its solubility kinetic is over 46.5 µg/mL.

Which solubility kinetic does the source give for `Cc1ccnc(N2C3CCC2CC(O)(c2ccccc2)C3)n1` (stereo not given) here?
The solubility kinetic was over 44.3 µg/mL.

For `CCN(CC(=O)NC1CC1)S(=O)(=O)c1ccc(C)cc1`, which solubility kinetic is on record?
The solubility kinetic was over 44.5 µg/mL.

For `O=C(COC(=O)c1ccc(O)cc1)Nc1ccc2c(c1)OCCO2`, which solubility kinetic is on record?
The solubility kinetic was 21.9 µg/mL (≈ 66.5 µM).

For `COc1ccc(CCNC(=O)CSCC(=O)Nc2cc(S(C)(=O)=O)ccc2Cl)cc1`, which solubility kinetic is on record?
The solubility kinetic was 18.6 µg/mL (≈ 39.5 µM).

Which solubility kinetic does the source give for `CCCC1(c2ccccc2)NC(=O)N(CC(=O)Nc2ccc3c(c2)OCCO3)C1=O` (stereo not given) here?
Its solubility kinetic is 36 µg/mL (≈ 87.9 µM).

With `O=C1C(Cc2c[nH]c3ccccc23)NC(=S)N1C1CCCCC1` (stereo not given) as the compound, how does the solubility kinetic read?
Its solubility kinetic is 49 µg/mL (≈ 150 µM).

Which solubility kinetic does the source give for `COc1ccc(S(=O)(=O)N2CN3CCN(C3)C2)cc1` here?
The solubility kinetic was over 42.5 µg/mL.

With `CC(NC(=O)c1ccc([N+](=O)[O-])cc1Cl)C1CC2CCC1C2` (stereo not given) as the compound, how does the solubility kinetic read?
Its solubility kinetic is 28 µg/mL (≈ 86.7 µM).

Which solubility kinetic does the source give for `COC(=O)c1[nH]c2ccccc2c1NC(=O)C(C)N1CC(C)OC(C)C1` (stereo not given) here?
Its solubility kinetic is over 53.9 µg/mL.

For `O=[N+]([O-])c1ccc(Sc2cc[n+]([O-])c3ccccc23)c([N+](=O)[O-])c1`, which solubility kinetic is on record?
Its solubility kinetic is 4.6 µg/mL (≈ 13.4 µM).

For `O=C(CC1CCCCC1)NCc1ccc(F)cc1`, which solubility kinetic is on record?
Its solubility kinetic is 20.7 µg/mL (≈ 83 µM).

Which solubility kinetic does the source give for `COc1ccc(S(=O)(=O)N2CCC(N3CCCC3)CC2)cc1` here?
Its solubility kinetic is 46.7 µg/mL (≈ 144 µM).

With `Cc1cccc(C(=O)OC(C)CN2CCOCC2)c1.Cl` (stereo not given) as the compound, how does the solubility kinetic read?
Its solubility kinetic is 38.9 µg/mL.

For `Cc1ccc(C(=O)NCCNC(=O)c2ccc(C)nc2)cc1`, which solubility kinetic is on record?
The solubility kinetic was over 44.6 µg/mL.

Which solubility kinetic does the source give for `CC1CCN(CCC(=O)Nc2nccs2)CC1` here?
The solubility kinetic was 33.7 µg/mL (≈ 133 µM).

With `COc1ccccc1OCC(=O)Nc1ccc(S(=O)(=O)N(C)c2ccccc2)cc1` as the compound, how does the solubility kinetic read?
Its solubility kinetic is 2.4 µg/mL (≈ 5.63 µM).

For `Cc1ccc(C(=O)O/N=C(\N)c2ccccn2)c(Cl)c1`, which solubility kinetic is on record?
The solubility kinetic was 42.4 µg/mL (≈ 146 µM).

With `O=C(O)C1C2CCC(O2)C1C(=O)Nc1ccc(F)c(F)c1` (stereo not given) as the compound, how does the solubility kinetic read?
Its solubility kinetic is 40.5 µg/mL (≈ 136 µM).

Which solubility kinetic does the source give for `O=C(C1CCCO1)N(c1ccc(F)cc1)C1C=CS(=O)(=O)C1` (stereo not given) here?
The solubility kinetic was over 48.8 µg/mL.

For `COc1ccc(CN(C)C(=O)c2ccc3c(=O)n4c(nc3c2)CCC4)cc1`, which solubility kinetic is on record?
Its solubility kinetic is over 54.5 µg/mL.

Which solubility kinetic does the source give for `Cc1cc(Br)cc(Cl)c1OC(=O)c1cnccn1` here?
The solubility kinetic was 47.4 µg/mL (≈ 145 µM).

Which solubility kinetic does the source give for `Cc1cccc(N(Cc2ccccc2)C(=O)c2ccccc2F)c1` here?
The solubility kinetic was 11.5 µg/mL (≈ 36 µM).

Which solubility kinetic does the source give for `Cc1ccc(NC(=O)CSc2nc3ccccc3c(=O)[nH]2)cc1[N+](=O)[O-]` here?
The solubility kinetic was 3.6 µg/mL (≈ 9.72 µM).

Which solubility kinetic does the source give for `CC(C)(C)n1cnc2cc(NC(=O)c3ccco3)ccc21` here?
Its solubility kinetic is 41.1 µg/mL (≈ 145 µM).

For `O=C1CCCCC1Sc1ccc(Cl)cc1[N+](=O)[O-]` (stereo not given), which solubility kinetic is on record?
Its solubility kinetic is 40.6 µg/mL (≈ 142 µM).

Which solubility kinetic does the source give for `O=C(C1CCCCC1)N1CC(=O)N2CCc3ccccc3C2C1` (stereo not given) here?
Its solubility kinetic is over 46.9 µg/mL.

Which solubility kinetic does the source give for `CC(=O)NCCc1nc2ccccc2n1Cc1cc(C)ccc1C` here?
Its solubility kinetic is over 48.2 µg/mL.

Which solubility kinetic does the source give for `O=C(CNC1CCCCC1)Nc1cccc(C(F)(F)F)c1` here?
The solubility kinetic was over 45 µg/mL.

For `CN(Cc1ccccc1)C(=O)c1ccc2c(c1)S(=O)(=O)N=C1CCCCCN12`, which solubility kinetic is on record?
Its solubility kinetic is over 59.6 µg/mL.

Which solubility kinetic does the source give for `O=C1[C@@H]2CSCN2C(=O)CN1Cc1ccc(F)cc1` here?
Its solubility kinetic is over 42 µg/mL.

For `Cc1cc(=O)[nH]c(SCC(=O)NCCC2=CCCCC2)n1`, which solubility kinetic is on record?
The solubility kinetic was 38.8 µg/mL (≈ 126 µM).

Which solubility kinetic does the source give for `O=C(Nc1csc([N+](=O)[O-])c1)Nc1ccccc1Cl` here?
The solubility kinetic was 1 µg/mL (≈ 3.36 µM).

With `CC1CCC2(CC1)NC(=O)N(CC(=O)Nc1cc(S(=O)(=O)N3CCCC3)ccc1Cl)C2=O` (stereo not given) as the compound, how does the solubility kinetic read?
The solubility kinetic was 1.4 µg/mL (≈ 2.9 µM).

For `O=C(Nc1ccc2c(c1)OCO2)C1CC1(Cl)Cl` (stereo not given), which solubility kinetic is on record?
Its solubility kinetic is over 41.1 µg/mL.

Which solubility kinetic does the source give for `O=C(COC(=O)c1cc[n+]([O-])cc1)NCc1ccccc1Cl` here?
Its solubility kinetic is over 48.1 µg/mL.

For `Br.Cc1ccc(C2Cc3cc(O)c(O)cc3CN2)cc1` (stereo not given), which solubility kinetic is on record?
The solubility kinetic was 44.3 µg/mL.

For `CC(C)(C)c1ccc(NC(=O)CCNC(=O)c2ccco2)cc1`, which solubility kinetic is on record?
The solubility kinetic was over 47.2 µg/mL.

For `Cl.Nc1ccc(CCN2CCCC2)cc1`, which solubility kinetic is on record?
Its solubility kinetic is 34.7 µg/mL.

With `COc1ccc(S(=O)(=O)Nc2cccnc2)c(Cl)c1Cl` as the compound, how does the solubility kinetic read?
Its solubility kinetic is 21.5 µg/mL (≈ 64.5 µM).

With `Cc1onc(-c2ccccc2)c1C(=O)NN1CCOCC1` as the compound, how does the solubility kinetic read?
The solubility kinetic was over 43.1 µg/mL.

For `Cc1ccc(-c2nc(CNC(=O)c3ccco3)cs2)cc1`, which solubility kinetic is on record?
The solubility kinetic was 42 µg/mL (≈ 141 µM).

Which solubility kinetic does the source give for `Cc1ccc(NC(=O)CO/N=C/c2ccccc2C)c(C)c1` here?
Its solubility kinetic is 8.7 µg/mL (≈ 29.4 µM).

For `CC(C)(C)CN1CCN(Cc2cccnc2)CC1CCO` (stereo not given), which solubility kinetic is on record?
The solubility kinetic was over 43.7 µg/mL.
